Experiments:
[1] = Tryptophanase (tryptophan lyase) activity of the enzyme preparation; format: biochemical, E. coli
Procedure: Tryptophan synthase activity was assayed by monitoring the increase in absorbance at 290 nm of a mixture containing serine, indole and PLP (Higgins, W., et al., Biochemistry, 1979, 18, 4827). TnA-catalyzed tryptophan synthesis was also measured by the 290 nm assay, while the tryptophan lyase reaction rate was measured by monitoring the reduction in NADH in reaction mixtures containing L-tryptophan and lactate dehydrogenase, indicating the amount of pyruvate released. Tryptophan decarboxylase was assayed colorimetrically by monitoring the sabsorbance at 580 nm produced by serotonin (AAADs) or tryptamine (TDCs) following treatment of reaction aliquots with Ehrlich's reagent (4-N,N-(dimethyl)aminobenzaldehyde in ethanolic HCl; Nakazawa, H.; Kumagi, H.; Yamada, H. Biochem Biophys. Res. Commun., 1974, 61, 75-82). Serotonin could be detected with approximately 5-fold higher sensitivity by this method as compared with tryptamine. The Ehrlich reagent assay using a microtiter plate format for simultaneous analysis of multiple enzyme samples may also be used. HPLC analysis was performed on acid-quenched reaction aliquots by using a base-deactivated C8 reversed-phase support (Shandon Hypersil BD8). HPLC analysis of acid-quenched aliquots permitted calculation of a rate ratio of 4.5 to 1 for pkAAAD-catalyzed DOPA decarboxylation relative to that of L-5-hydroxytryptophan, in good agreement with the accepted ratio of approximately 5:1. (See Sourkes, T. L. Methods Enzymol., 1987, 142, 170-178, which is incorporated herein by reference.)
Activity is expressed as μmol product formed per minute, TrpBA activity is reported for the reaction: indole+serine−>tryptophan at room temperature as described in the next section. Tryptophanase is reported for the reaction: tryptophan−>indole+pyruvate+NH4^+ at room temperature. The rate of tryptophan synthesis for TrpBA under our assay conditions is approximately 3-fold higher at 37° C.

[2] = pH-rate profiles for tryptophan-metabolizing enzymes; format: biochemical; conditions: between pH 7.5 and 9.5, L-serine and indole
Description: Both AAADs TDC1 and TDC2 were active over the entire optimum range shown by TrpBA. These broad activity ranges make it clear that the coupled enzyme process is not limited by pH.

[3] = molecular target: T1, pig kidney aromatic amino acid decarboxylase (pkAAAD) (Sus scrofa, UniProt P80041); test: Substrate screen for tryptophan decarboxylation, pkAAAD; format: biochemical; set-up: key: +: a clear ninhydrin-positive spot at the Rf of standard tryptophan derivatives after 16-65 h; (+): a weak spot in the product region; −: no product observed; NR: experiment not run; conditions: tryptophan derivative, PLP, pH 7.5, 37° C.
T1 construct: Frozen tissue was partially thawed in lysis buffer, then it was extracted and partially purified; from tissue; host or cells: pig kidney
T1 sequence (P80041 1-486): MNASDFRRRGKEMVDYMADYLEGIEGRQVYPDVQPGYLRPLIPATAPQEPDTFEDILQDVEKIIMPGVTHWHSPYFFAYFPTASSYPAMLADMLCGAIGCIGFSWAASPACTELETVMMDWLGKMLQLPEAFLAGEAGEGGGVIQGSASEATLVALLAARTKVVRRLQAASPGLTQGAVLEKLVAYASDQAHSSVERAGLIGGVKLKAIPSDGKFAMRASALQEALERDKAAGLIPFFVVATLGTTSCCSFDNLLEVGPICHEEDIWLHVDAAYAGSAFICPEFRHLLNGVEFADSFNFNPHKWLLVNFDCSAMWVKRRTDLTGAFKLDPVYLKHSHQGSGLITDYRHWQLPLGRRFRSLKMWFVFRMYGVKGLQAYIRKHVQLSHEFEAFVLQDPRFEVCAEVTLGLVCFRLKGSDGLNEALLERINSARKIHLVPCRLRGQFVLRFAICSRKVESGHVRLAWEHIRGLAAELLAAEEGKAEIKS

[4] = molecular target: T2, tryptophan decarboxylase TDC2 (Camptotheca acuminata, UniProt P93083); test: Substrate screen for tryptophan decarboxylation, TDC2; format: biochemical, C. accuminata; set-up: key: +: a clear ninhydrin-positive spot at the Rf of standard tryptophan derivatives after 16-65 h; (+): a weak spot in the product region; −: no product observed; NR: experiment not run; conditions: tryptophan derivative, PLP, pH 7.5, 37° C.
T2 construct: made in house; host or cells: E. coli DH5α (pKK233 plasmid from C. Nessler)
T2 sequence (P93083 1-498): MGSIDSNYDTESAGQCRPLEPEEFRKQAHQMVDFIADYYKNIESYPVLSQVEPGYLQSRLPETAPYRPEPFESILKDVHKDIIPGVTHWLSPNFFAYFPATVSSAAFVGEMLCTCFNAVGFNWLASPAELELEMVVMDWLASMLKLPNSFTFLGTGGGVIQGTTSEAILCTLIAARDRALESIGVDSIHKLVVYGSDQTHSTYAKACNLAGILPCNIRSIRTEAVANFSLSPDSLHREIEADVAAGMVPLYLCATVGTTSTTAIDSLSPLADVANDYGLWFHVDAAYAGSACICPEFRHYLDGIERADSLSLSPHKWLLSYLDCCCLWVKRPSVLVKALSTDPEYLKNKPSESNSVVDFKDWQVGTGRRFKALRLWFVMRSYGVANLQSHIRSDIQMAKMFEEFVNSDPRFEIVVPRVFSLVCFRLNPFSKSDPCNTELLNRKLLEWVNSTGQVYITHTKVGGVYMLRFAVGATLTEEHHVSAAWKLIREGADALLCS
Procedure: (§1) A mixture containing 1 μmole of the tryptophan derivative, 0.05 μmole of PLP and 50 μmol of L-serine in 40 mM pH 7.5 KPi buffer was warmed to 37° C., then enzyme solution was added to give a final volume of 1 mL. Aliquots (100 HL) were quenched at intervals and were evaporated in a Savant Speed-vac as in Example 6. For TLC analysis, CH2Cl2/EtOH/H2O/HOAc 49:49:1:1 was used as the solvent. The plates were visualized with short-wave UV light and ninhydrin as in Example 6.
(§2) HPLC techniques were used to monitor the decarboxylation of substituted tryptophans. Mass spectral analysis of the collected HPLC peaks was used to confirm the identity of several tryptamine derivatives, as shown in Table 5.

[5] = molecular target: T3, TDC1 (Camptotheca acuminata, UniProt P93082); test: Relative decarboxylation rates by Ehrlich's reagent, TDC1; format: biochemical, C. accuminata
T3 construct: made in house; host or cells: E. coli DH5α (pKK233 plasmid from C. Nessler)
T3 sequence (P93082 1-502): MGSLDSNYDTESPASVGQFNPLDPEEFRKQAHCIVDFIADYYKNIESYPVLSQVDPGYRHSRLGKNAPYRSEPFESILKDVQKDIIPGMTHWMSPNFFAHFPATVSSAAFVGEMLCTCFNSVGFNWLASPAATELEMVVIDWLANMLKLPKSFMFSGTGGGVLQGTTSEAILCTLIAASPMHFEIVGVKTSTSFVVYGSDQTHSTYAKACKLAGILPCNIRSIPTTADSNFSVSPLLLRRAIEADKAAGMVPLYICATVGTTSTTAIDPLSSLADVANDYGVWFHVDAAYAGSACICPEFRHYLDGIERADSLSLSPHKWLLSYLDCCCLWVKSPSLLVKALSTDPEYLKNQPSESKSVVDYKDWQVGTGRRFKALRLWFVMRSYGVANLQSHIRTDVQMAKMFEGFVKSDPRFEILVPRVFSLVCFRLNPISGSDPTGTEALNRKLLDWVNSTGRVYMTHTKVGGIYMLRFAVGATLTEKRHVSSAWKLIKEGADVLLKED
Procedure: (§3) […] Reaction aliquots were quenched in microcentrifuge capsules containing 50 μL each of 6M HCl to quench the enzyme reaction at 2, 5, and 20 min. Quenched aliquots were heated at 50° C. for 40 min with 750 μL each of Ehrlich's reagent (2:24:74 w/v/v 4-(diethyl)aminobenzaldehyde: conc HCl: ethanol). Absorbance was read at 580-nm and compared with standards of serotonin (10-250 μM) or tryptamine (50 to 2000 μM).
(§4) Relative rates for decarboxylation of L-5-hydroxytryptophan (L-5-HOtrp) and L-tryptophan were determined for TDC1 and TDC2 by use of Ehrlich's reagent, discussed in Example 10.

[6] = molecular target: T4, TDC2 (Camptotheca acuminata, UniProt P93083); test: Relative decarboxylation rates by Ehrlich's reagent, TDC2; format: biochemical, C. accuminata
T4 construct: made in house; host or cells: E. coli DH5α (pKK233 plasmid from C. Nessler)
T4 sequence (P93083 1-498): T2 sequence (P93083 1-498)
Procedure: as §3, §4

[7] = molecular target: T5, tryptophan decarboxylase TDC1 (Camptotheca acuminata, UniProt P93082); test: Substrate screen for tryptophan decarboxylation, TDC1; format: biochemical, C. accuminata; set-up: key: +: a clear ninhydrin-positive spot at the Rf of standard tryptophan derivatives after 16-65 h; (+): a weak spot in the product region; −: no product observed; NR: experiment not run; conditions: tryptophan derivative, PLP, pH 7.5, 37° C.
T5 construct: made in house; host or cells: E. coli DH5α (pKK233 plasmid from C. Nessler)
T5 sequence (P93082 1-502): T3 sequence (P93082 1-502)
Procedure: as §1, §2

Molecule | Crude specific activity ([1]; Table 3, TnA) | Crude spec activity ([1]; TnA, tryptophan->indole+pyruvate+NH4+, room temperature) | Purified specific activity ([1]; TnA, tryptophan->indole+pyruvate+NH4+, room temperature, after DEAE cellulose) | percent of the maximum rate [2] | pkAAAD (decarboxylation substrate screen) [3] | TDC2 (decarboxylation substrate screen) [4] | ratio trp/5HOtrp TDC1 (relative decarboxylation rate) ([5]; pH 7.5) | ratio trp/5HOtrp TDC1 (relative decarboxylation rate) ([5]; pH 8.5) | ratio trp/5HOtrp TDC1 (relative decarboxylation rate) ([5]; pH 9.5) | ratio trp/5HOtrp TDC2 (relative decarboxylation rate) ([6]; pH 7.5) | ratio trp/5HOtrp TDC2 (relative decarboxylation rate) ([6]; pH 8.5) | ratio trp/5HOtrp TDC2 (relative decarboxylation rate) ([6]; pH 9.5) | TDC1 (decarboxylation substrate screen) [7]
TnA: E. coli tryptophanase, E.C. 4.1.99.1, cloned and expressed in E. coli | 0.8 units/mg | 0.8 | 2.0 Units/mg | ≥ 84% | – | – | – | – | – | – | – | – | –
N[C@@H](Cc1c[nH]c2ccccc12)C(=O)O [L-tryptophan] | – | – | – | – | (+) | + | 15.1 | 10.5 | 10.3 | 64.1 | 38.3 | 53.6 | +
